In US20090023784A1, “USE OF DEFERIPRONE AND METHODS TO TREAT AND/OR PREVENT FRIEDREICH ATAXIA RESULTING FROM INTRACELLULAR MISHANDLING OF IRON” (priority 2006, published 2009):
Entries after “also recorded” stand apart in the source; their conditions may differ.

System: patients with Friedreich ataxia
Assay: Phase I-II open pilot trial: ICARS, Perdue Pegboard and parents' observations (patients kept on idebenone)
Type: in vivo, human
Details: for Perdue pegboard: number of nails inserted
Source text: Ten adolescents (four males, six females aged 14 to 23 yrs) with a diagnosis of Friedreich ataxia, confirmed by detection of a trinucleotide-repeat expansion in the first intron of the frataxin gene, were studied. Patients received deferiprone (Ferriprox™, Apotex Inc., Toronto, Canada) orally, in two doses for 1-5 months. Three patients were included, sequentially, for a minimum period of two months at each dose. Patient enrollment was staggered by two-weeks to enable monitoring of response. In the absence of toxicity, and with evidence of efficacy in any of the first 3 patients, a second group of 3 patients would be included at the same dose for a total duration of 6 months. If there was an absence of both efficacy and toxicity, the second group of three patients would be administered a higher dose. If toxicity developed, the current dose would be suspended and the trial resumed with the next group of patients at a lower dose. The patients were on idebenone (10 mg/kg/day, in three doses) for at least two years prior to inclusion and were kept on the drug at the same dose for the duration of the trial. MRI examinations were done at inclusion and at 1, 2, 4 and 6 months. The protocol was promoted by Assistance Publique-Hopitaux de Paris and approved by the local ethical committee and registered at the National Health Authority (AFSSAPS) and at the International Protocol Registration System (www.clinicaltrials.gov). A written informed consent was obtained from patients and parents.
The International Cooperative Ataxia Rating Score (ICARS) was used to assess the symptoms of ataxia before and after 1-5 months (Cano et al. International cooperative ataxia rating scale (ICARS): Appropriate for studies of Friedreich's ataxia? Mov Disord 2005; 20:1585-91). This scale has four subscales: posture and gait disturbance, kinetic functions, speech disorders and oculomotor disorders. Subscale scores are summed to give a total score ranging from 0 to 100. High scores indicated worse ataxia. The Perdue Pegboard test, which assesses speed of performance, delicate movements and manipulative dexterity, was included in the course of the study. This test assesses the ability of the participant to insert as many nails as possible into preset holes, linearly dug in a wooden board in a limited space of time (20 seconds with the two hands, separately and together). The tests were administered by the same investigator. Patients were monitored for neutropenia, agranulocytosis, musculoskeletal pains and zinc deficiency and had weekly blood counts, plasma iron, serum ferritin and transferrin concentration measurements, as well as assessments of renal and liver function.

[1] = patient eight, DFP 20 mg/kg, 4 mth, after trial
[2] = patient eight, DFP 20 mg/kg, 4 mth, prior to trial
[3] = patient five, DFP 30 mg/kg, 1 mth, after trial
[4] = patient five, DFP 30 mg/kg, 1 mth, prior to trial
[5] = patient four, DFP 20 mg/kg, 2 mth, after trial
[6] = patient four, DFP 20 mg/kg, 2 mth, prior to trial
[7] = patient one, DFP 20 mg/kg, 5 mth, after trial
[8] = patient one, DFP 20 mg/kg, 5 mth, prior to trial
[9] = patient six, DFP 30 mg/kg, 1 mth, after trial
[10] = patient six, DFP 30 mg/kg, 1 mth, prior to trial
[11] = patient three, DFP 20 mg/kg, 2 mth, after trial
[12] = patient three, DFP 20 mg/kg, 2 mth, prior to trial
[13] = patient two, DFP 20 mg/kg, 3 mth, after trial
[14] = patient two, DFP 20 mg/kg, 3 mth, prior to trial

Cc1c(O)c(=O)ccn1C [Deferiprone, 3-hydroxy-1,2-dimethylpyridin-4-one]
time to disappearance of constipation, incontinence and some subjective signs of peripheral neuropathy (20 mg/kg/day oral): 1-2 months
neurological condition noted by parents and uninformed relatives (20 mg/kg/day oral, within a few weeks, all treated patients): unexpected neurological improvement
changes of the ICARS scores (20 mg/kg/day, short period of the trial): mild changes of the ICARS scores
Perdue Pegboard test: speed of performances and dexterity (30 mg/kg/day oral, before and 1-2 months after onset): improvement of speed of performances and dexterity
Kinetic function (/29) [1]: 7
Oculomotor disorder (/6) [1]: 2
Posture and gait disturbance: 7 items (/34) [1]: 9
Posture and gait disturbance: gait speed [1]: 1
Posture and gait disturbance: spread feet [1]: 3
Posture and gait disturbance: standing eyes open [1]: 1
Posture and gait disturbance: walking [1]: 2
Speech disorder (/8) [1]: 2
Total ICARS (/100) [1]: 20
Observation (patient eight, DFP 20 mg/kg, 4 mth, listed as DFP): no more incontinence, improved gait and balance, warming; also recorded: up of feet
Kinetic function (/29) [2]: 7
Oculomotor disorder (/6) [2]: 2
Posture and gait disturbance: 7 items (/34) [2]: 12
Posture and gait disturbance: gait speed [2]: 1
Posture and gait disturbance: spread feet [2]: 3
Posture and gait disturbance: standing eyes open [2]: 2
Posture and gait disturbance: walking [2]: 3
Speech disorder (/8) [2]: 2
Total ICARS (/100) [2]: 23
Kinetic function (/29) [3]: 8
Oculomotor disorder (/6) [3]: 2
Posture and gait disturbance: 7 items (/34) [3]: 8
Posture and gait disturbance: gait speed [3]: 2
Posture and gait disturbance: spread feet [3]: 0
Posture and gait disturbance: standing eyes open [3]: 1
Posture and gait disturbance: walking [3]: 2
Speech disorder (/8) [3]: 2
Total ICARS (/100) [3]: 20
Observation (patient five, DFP 30 mg/kg, 1 mth, listed as DFP): no more constipation, incontinence and bending, improved; also recorded: balance and gait
Kinetic function (/29) [4]: 8
Oculomotor disorder (/6) [4]: 2
Posture and gait disturbance: 7 items (/34) [4]: 11
Posture and gait disturbance: gait speed [4]: 2
Posture and gait disturbance: spread feet [4]: 1
Posture and gait disturbance: standing eyes open [4]: 2
Posture and gait disturbance: walking [4]: 2
Speech disorder (/8) [4]: 2
Total ICARS (/100) [4]: 23
Kinetic function (/29) [5]: 12
Oculomotor disorder (/6) [5]: 0
Posture and gait disturbance: 7 items (/34) [5]: 13
Posture and gait disturbance: gait speed [5]: 1
Posture and gait disturbance: spread feet [5]: 2
Posture and gait disturbance: standing eyes open [5]: 1
Posture and gait disturbance: walking [5]: 3
Speech disorder (/8) [5]: 2
Total ICARS (/100) [5]: 27
Perdue pegboard [5]: 29
Perdue pegboard [6]: 37
Kinetic function (/29) [6]: 13
Oculomotor disorder (/6) [6]: 0
Posture and gait disturbance: 7 items (/34) [6]: 16
Posture and gait disturbance: gait speed [6]: 1
Posture and gait disturbance: spread feet [6]: 2
Posture and gait disturbance: standing eyes open [6]: 3
Posture and gait disturbance: walking [6]: 3
Speech disorder (/8) [6]: 2
Total ICARS (/100) [6]: 31
Kinetic function (/29) [7]: 7
Oculomotor disorder (/6) [7]: 2
Posture and gait disturbance: 7 items (/34) [7]: 27
Posture and gait disturbance: gait speed [7]: 3
Posture and gait disturbance: spread feet [7]: 2
Posture and gait disturbance: standing eyes open [7]: 4
Posture and gait disturbance: walking [7]: 7
Speech disorder (/8) [7]: 0
Total ICARS (/100) [7]: 37
Observation (patient one, DFP 20 mg/kg, 5 mth, listed as DFP): improved gait, writing, delicate movements, can move them; also recorded: toes, feels their feet, warming up of feet
Kinetic function (/29) [8]: 8
Oculomotor disorder (/6) [8]: 2
Posture and gait disturbance: 7 items (/34) [8]: 28
Posture and gait disturbance: gait speed [8]: 3
Posture and gait disturbance: spread feet [8]: 3
Posture and gait disturbance: standing eyes open [8]: 4
Posture and gait disturbance: walking [8]: 7
Speech disorder (/8) [8]: 1
Total ICARS (/100) [8]: 39
Observation (patient seven, DFP 20 mg/kg, 5 mth, listed as DFP): improved gait, writing, delicate movements, can move them; also recorded: toes, feels their feet, warming up of feet
Observation (patient six, DFP 30 mg/kg, 1 mth): improved gait and standing, no more constipation
Kinetic function (/29) [9]: 9
Oculomotor disorder (/6) [9]: 0
Posture and gait disturbance: 7 items (/34) [9]: 17
Posture and gait disturbance: gait speed [9]: 1
Posture and gait disturbance: spread feet [9]: 2
Posture and gait disturbance: standing eyes open [9]: 2
Posture and gait disturbance: walking [9]: 7
Speech disorder (/8) [9]: 0
Total ICARS (/100) [9]: 26
Perdue pegboard [9]: 39
Perdue pegboard [10]: 52
Kinetic function (/29) [10]: 9
Oculomotor disorder (/6) [10]: 0
Posture and gait disturbance: 7 items (/34) [10]: 20
Posture and gait disturbance: gait speed [10]: 1
Posture and gait disturbance: spread feet [10]: 2
Posture and gait disturbance: standing eyes open [10]: 3
Posture and gait disturbance: walking [10]: 7
Speech disorder (/8) [10]: 0
Total ICARS (/100) [10]: 29
Kinetic function (/29) [11]: 11
Oculomotor disorder (/6) [11]: 0
Posture and gait disturbance: 7 items (/34) [11]: 16
Posture and gait disturbance: gait speed [11]: 2
Posture and gait disturbance: spread feet [11]: 3
Posture and gait disturbance: standing eyes open [11]: 4
Posture and gait disturbance: walking [11]: 7
Speech disorder (/8) [11]: 2
Total ICARS (/100) [11]: 29
Perdue pegboard [11]: 44
Perdue pegboard [12]: 37
Kinetic function (/29) [12]: 11
Oculomotor disorder (/6) [12]: 0
Posture and gait disturbance: 7 items (/34) [12]: 17
Posture and gait disturbance: gait speed [12]: 2
Posture and gait disturbance: spread feet [12]: 3
Posture and gait disturbance: standing eyes open [12]: 5
Posture and gait disturbance: walking [12]: 7
Speech disorder (/8) [12]: 3
Total ICARS (/100) [12]: 31
Observation (patient two, DFP 20 mg/kg, 3 mth): no more fatigue, improved delicate movements
Kinetic function (/29) [13]: 21
Oculomotor disorder (/6) [13]: 2
Posture and gait disturbance: 7 items (/34) [13]: 32
Posture and gait disturbance: gait speed [13]: 4
Posture and gait disturbance: spread feet [13]: 4
Posture and gait disturbance: standing eyes open [13]: 6
Posture and gait disturbance: walking [13]: 7
Speech disorder (/8) [13]: 4
Total ICARS (/100) [13]: 59
Kinetic function (/29) [14]: 21
Oculomotor disorder (/6) [14]: 3
Posture and gait disturbance: 7 items (/34) [14]: 33
Posture and gait disturbance: gait speed [14]: 4
Posture and gait disturbance: spread feet [14]: 4
Posture and gait disturbance: standing eyes open [14]: 6
Posture and gait disturbance: walking [14]: 7
Speech disorder (/8) [14]: 4
Total ICARS (/100) [14]: 61
